Experimental data taken from PMC11676693, “Population Pharmacokinetic and Pharmacodynamic Study of Palbociclib in Children and Young Adults with Recurrent, Progressive, or Refractory Brain Tumors” (Pharmaceutics, 2024).
Like-named read-outs stand apart in the source and are kept apart here.

Key:
[1] = in vivo
Experimental: The patients included in this palbociclib population pharmacokinetic/pharmacodynamic analysis were treated in the phase I clinical trial PBTC-042 (NCT02255461), which evaluated single-agent oral palbociclib therapy in children and young adults with recurrent, progressive, or refractory brain tumors. Details of this clinical trial have been reported elsewhere. In adults treated with palbociclib, myelosuppression has been the main dose-limiting toxicity (DLT) reported, and the toxicity is greater in more heavily pretreated patients. Thus, patients in this pediatric trial were divided into two strata: stratum I included patients who were not heavily pretreated, while stratum II included heavily pretreated patients. The starting dosage for stratum I was 50 mg/m^2, with planned dose escalations to 75 mg/m^2 and 95 mg/m^2. The planned starting dosage for stratum II was one dosage level below the MTD for stratum I. The Institutional Review Board approved this trial and written informed consent was obtained from patients, parents, or legal guardians before the onset of any study procedures. Assent was obtained from patients as appropriate based on local institutional guidelines.
Pharmacokinetic studies of oral palbociclib (PD-0332991) were performed on course 1, day 1 and day 21 to evaluate the population pharmacokinetics of palbociclib. On day 2 of course 1, the palbociclib dose was held. On day 1 of course 1, palbociclib single-dose serial blood samples were drawn pre-dose and 0.5, 1, 2, 4, 8 (±1), 24 (±4), and 48 (±4) hours (immediately prior to the day 3 dose) after the oral dose. On day 21 of course 1, palbociclib steady-state serial blood samples were collected pre-dose and 1, 2, 4, 8 (±1), and 24 (±4) hours (immediately prior to the day 22 dose) after the dose.
At each time point, whole blood (2 mL) was collected in K2EDTA tubes, spun to plasma within one hour of collection, and stored at −20 °C until analysis. Palbociclib plasma concentrations were measured using a validated liquid chromatography–mass spectrometric assay method with a lower limit of quantitation (LLOQ) of 1 ng/mL [14].
Palbociclib serum concentration–time data from course 1, day 1 and day 21 were analyzed using nonlinear mixed-effects modeling implemented in Monolix software version 2023R1 (Lixoft, Antony, France) using the Stochastic Approximation Expectation Maximization (SAEM) algorithm. Inter-individual and inter-occasion variabilities were assumed to be log-normally distributed. A proportional residual error model was used to quantify the unexplained variability of the model. Error terms were assumed to be normally distributed. A one-compartment model with first-order absorption, the absorption lag time, and first-order elimination was used. Specifically, the PK parameters estimated included the absorption lag time (Tlag), absorption rate constant (ka), apparent oral volume (V/F), and apparent oral clearance (CL/F), where F was the bioavailability, which was not identifiable given only oral dosing was used. The inter-individual variability was estimated for all parameters. Additionally, the inter-occasion variability was estimated for the CL/F. The palbociclib dosage (i.e., the palbociclib dosage normalized to the patient body surface area (BSA)) was used as the model input. Data below the limit of quantitation (BLQ) were censored according to the Beal method M3 [17], as implemented in Monolix. […]

[2] = tested on: proliferating neutrophils in the bone marrow compartment (ANC); test: Population pharmacodynamic model of ANC (neutrophil dynamics); type: in vivo, children and young adults
Experimental: (§1) A complete blood count (CBC) with differential was performed pre-therapy, weekly during course 1, and then weekly during courses 2 to 26. The CBC provided platelet and absolute neutrophil counts (ANCs).
(§2) The model describing the ANC and platelet dynamics has been previously described. The model for the ANC consisted of a bone marrow compartment with proliferating neutrophils, three transient compartments that represent the maturation process of the neutrophils from blasts to circulating neutrophils, and a circulating neutrophil compartment. The model included the negative feedback effects of endogenous G-CSF, which affected the growth rate of proliferating cells in a manner inversely proportional to the concentration of circulating neutrophils. We assumed that palbociclib only affected the proliferating neutrophils in the bone marrow compartment. We used a similar structural model for platelet dynamics. The model describing the neutrophil dynamics is shown in Equations (1)–(5) and Figure S1. (1) NPBM/dt=kinKM/KM+NcircIC50n/IC50n+Cpalblociclibn−kbpNPBM (2) dNT1/dt=kbpNPBM−NT1 (3) dNT2/dt=kbpNT1−NT2 (4) dNT3/dt=kbpNT2−NT3 (5) dNcirc/dt=kpbNT3−koutNcirc
The model parameters were as follows: NPBM: proliferating bone marrow stem cells; NT1, NT2, and NT3: transient compartments describing the maturation phases of the neutrophils; Ncirc: circulating neutrophils. Note that we were only able to observe this compartment. The model parameters were defined as follows: kin (1/days): the stem cell proliferation rate; kbp (1/days): the transition rate between transient compartments (the mean transition time from the bone marrow to the circulating neutrophils is 4/kbp); kout (1/days): the elimination rate of circulating neutrophils; KM (10^3/µL): the half-saturation effect of the G-CSF negative feedback; IC50 (nM) and n; the half-saturation effect and Hill coefficient of the palbociclib effects on the bone marrow; and Cpalbociclib (nM): the concentration of palbociclib in the plasma. Prior to treatment, the system was assumed to be steady-state, where Ncirc0 was the steady-state circulating neutrophil level. The following relationship between the model parameters was needed for the system to maintain steady state prior to treatment (Equation (6)). (6) KM=kbp/kin−kbpNcirc0
For this relationship to be positive, kin > kpb. To ensure this requirement, we defined kpb = fkbp·kin where fkbp ∈ [0, 1] and estimated fkbp. In addition, the initial conditions for the system at steady state (i.e., the steady-state solution to the system in the absence of the drug) are (Equation (7)) (7) kout/kbpNcirc0, kout/kbpNcirc0, kout/kbpNcirc0, kout/kbpNcirc0, Ncirc0
The parameters for the pharmacodynamic model were estimated using nonlinear mixed-effects modeling with the SAEM algorithm as implemented in the Monolix® software version 2023R1 (Lixoft, Antony, France). The palbociclib pharmacokinetics were fixed to each individual’s post hoc estimated parameters (as determined above). The inter-individual and inter-occasion variability were assumed to be log-normally distributed for all parameters except fkbp, which was assumed to be a logit distribution, so its value will be between 0 and 1. A proportional residual error model was used to quantify the unexplained variability of the model. Error terms were assumed to be normally distributed.

[3] = tested on: platelets (PLT); test: Population pharmacodynamic model of platelet (PLT) dynamics; type: in vivo, children and young adults
Experimental: as §1
as §2, with “The model describing the neutrophil dynamics is shown in Equations (1)–(5) and Figure S1. (1) NPBM/dt=kinKM/KM+NcircIC50n/IC50n+Cpalblociclibn−kbpNPBM (2) dNT1/dt=kbpNPBM−NT1 (3) dNT2/dt=kbpNT1−NT2 (4) dNT3/dt=kbpNT2−NT3 (5) dNcirc/dt=kpbNT3−koutNcirc” left out
The parameters for the pharmacodynamic model were estimated using nonlinear mixed-effects modeling with the SAEM algorithm as implemented in the Monolix® software version 2023R1 (Lixoft, Antony, France). The palbociclib pharmacokinetics were fixed to each individual’s post hoc estimated parameters (as determined above). […] A proportional residual error model was used to quantify the unexplained variability of the model. […]

[4] = parameters: method as in PMID 37553297; details: mean (range), 12 children, cited from earlier work
[5] = cited from earlier work
[6] = median (5th–95th percentile), individual model estimates, first two courses

## CC(=O)c1c(C)c2cnc(Nc3ccc(N4CCNCC4)cn3)nc2n(C2CCCC2)c1=O [palbociclib]
[1]; human
  Inter-patient variability (IIV) of CL/F: 0.24
  absorption rate constant: 0.48 h⁻¹
  decrease of inter-patient variability of CL/F with inclusion of AST: 10%
[1]; human, po
  fold lower apparent oral clearance: 2 fold
[1]
  effect of concomitant drugs as covariates on CL/F: None of the concomitant drugs considered as covariates were significant
[2]; Homo sapiens, Neutrophil, read-out: IC50 (half-saturation effect of palbociclib on the bone marrow)
  IC50: 384 nM
[2]; courses 3 and 4 predicted from courses 1 and 2
  cumulative nature of decreases in ANCs: not cumulative
[2]; median (5th–95th percentile) (abstract)
  time individuals had grade 3 or greater neutropenia: 4 (0, 21) days
[2]; median (5th–95th percentile), first two courses
  ANC nadir: 1.0 (0.4, 3.3) × 10^3/µL
[2]; [6]
  time below an ANC of 0.5 × 10^3/µL (grade 4 neutropenia): 0 (0, 11) days/course
  time below an ANC of 1.0 × 10^3/µL (grade 3 neutropenia): 4 (0, 21) days/course
  time below an ANC of 1.5 × 10^3/µL (grade 2 neutropenia): 15 (0, 35) days/course
[3]; Homo sapiens, Platelet, read-out: IC50 (half-saturation effect of palbociclib on the bone marrow)
  IC50: 559 nM
[3]; individual model estimates, first two courses, 31 individuals
  individuals with grade 1 (<100 ×) or greater thrombocytopenia: three
[4]; capsule and liquid formulations
  steady state apparent oral clearance: 40.4 (21.1–102.0) L/h/m^2
[4]
  half-life: 27.9 (4.5–86.8) hours
[5]; Courlet, 45 women with metastatic breast cancer, two-compartment model
  apparent oral clearance: 67 L/h
[5]; Courlet, 45 women with metastatic breast cancer
  apparent oral clearance: 39 L/h/m^2
[5]; Royer, adults, 124 patients
  apparent oral clearance: 34 L/h/m^2
[5]; Royer, adults, therapeutic drug monitoring data, 124 patients
  apparent oral clearance: 58 L/h
[5]; adults, 143 patients
  apparent oral clearance: 34 L/h/m^2
[5]; adults, therapeutic drug monitoring data, 143 patients
  apparent oral clearance: 57 L/h
[5]; taken under fasting conditions along with concomitant proton pump inhibitors
  increase of apparent oral clearance: 56%
